Where no end group is shown, it is not given here.

We go through four compounds from patent US20220202943A1, “TOPICAL COMPOSITIONS FOR SKIN COMPRISING A CELL PENETRATING PEPTIDE AND METHODS OF USING THE SAME” (ImDerma Laboratories Co. Ltd., priority 2020, published 2022).

Common to all, as to type: cell-based, human
Series [1] has as its system HaCaT cells. Kind of series: Intracellular ROS induced by H2O2 in HaCaT cells, DCFDA fluorescence assay. The protocol: (§1) Following the removal of DMEM medium in the 96-well plate, 100 uL of 1 μM peptide X and 100 uL of tea polyphenols (0.01%, 0.05% or 0.1%), were added in the 96-well plate. After 2, 4, 6, 16 or 24 hours of reaction, the peptide X and tea polyphenols were removed and then DMEM medium with 1.2 mM H2O2 was added for 2 hours of reaction in dark to induce intracellular ROS in the HaCaT cells. After the above reaction, DMEM medium with 1.2 mM H2O2 was removed from the 96-well plate and 100 μL of 10 μM DCFDA (2′,7′—dichlorofluorescin diacetate) was added for half an hour of reaction to measure the levels of intracellular ROS in HaCaT cells using fluorescence assay. Following the removal of DCFDA, the treated cells were washed with 200 μL of PBS. Subsequently, after PBS was removed, 100 μL of transparent DMEM medium was added and absorbance at 488/520 nm was measured to determinate the levels of intracellular ROS. After the above measurement, the transparent DMEM medium was removed and then 100 μL of 1 mg/mL MTT was added for 2 hours of reaction; subsequently, the absorbance at 595 nm was measured for calculating the cell viability.
EUK134™ (0.12 μM, 0.23 μM or 2.35 μM) or a mixture of peptide X (1 μM) and EUK134™ (0.12 μM or 0.23 μM), were added in HaCaT cells for 8 hours of reaction. Following the removal of EUK134™ and the mixture of peptide X and EUK134™, 1.2 mM H2O2 was added to induce intracellular ROS in the HaCaT cells and then the levels of intracellular ROS were detected using DCFDA. After the detection of the levels of intracellular ROS, the cell viability was confirmed using MTT assay.
Resveratrol (6.25 μM, 12.5 μM or 25 μM) or a mixture of peptide X (1 μM) and resveratrol (6.25 μM, 12.5 μM or 25 μM), were added in HaCaT cells for different time of reaction. Following the removal of resveratrol and the mixture of peptide X and resveratrol, 1.2 mM H2O2 was added to induce intracellular ROS in the HaCaT cells and then the levels of intracellular ROS were detected using DCFDA. After the detection of the levels of intracellular ROS, the cell viability was confirmed using MTT assay.

The test system of series [2] is HaCaT cells. Kind of series: Cell viability of HaCaT cells, MTT assay. The conditions noted are these: 1.0 μM peptide X. Here is the method: as §1
EUK134™ (0.12 μM, 0.23 μM or 2.35 μM) or a mixture of peptide X (1 μM) and EUK134™ (0.12 μM or 0.23 μM), were added in HaCaT cells for 8 hours of reaction. […]
(Tetrazolium assays rely on reduction of a dye to a coloured formazan, in cell work by metabolically active cells.)

In the next series the test system is type I pro-collagen. Kind of series: Type I pro-collagen level in Hs68 cells, ELISA. Conditions: TGF-β 10 ng/mL. The protocol: In order to confirm if the peptide X is capable of delivering TGF-β into skin cells, Hs68 cells were seeded in a 6-well plate. Following the removal the medium in the 6-well plate, TGF-β (10 ng/mL), peptide X (1.0 μM) or a mixture of TGF-β (10 ng/mL) and peptide X (1.0 μM) were added in the 6-well plate. After 6, 12 or 24 hours of reaction, the level of type I pro-collagen in the cells was confirmed using ELISA kit with human pro-collagen 1 alpha 1 capture antibody and human pro-collagen 1 alpha 1 detector antibody.
Background: An ELISA detects its analyte on a solid surface through an enzyme-linked reagent.

For the compound `Oc1ccc(/C=C/c2cc(O)cc(O)c2)cc1` [resveratrol, reference compound], the “reduction of level of intracellular ROS induced by H2O2” value in the series with HaCaT cells [1] (resveratrol 6.25, 12.5 or 25 μM without peptide X, no significant difference among concentrations) was 75˜80%.

In the case of “NYRWRCKNQN [peptide X, Asn-Tyr-Arg-Trp-Arg-Cys-Lys-Asn-Gln-Asn]”, in the series on HaCaT cells [2], the “cytotoxicity to HaCaT cells” value is “no cytotoxicity”.

As to TGF-β, the “increase of expression of type I pro-collagen” value in the series with type I pro-collagen is around 20%.

In the case of “ethylbisiminomethylguaiacol manganese chloride [EUK134™]”, the “reduction of level of intracellular ROS induced by H2O2” value with HaCaT cells [1] (0.12 μM EUK134 without peptide X, 8 hours of treatment) stood at 50%. The “reduction of level of intracellular ROS” value with HaCaT cells [1] (0.23 μM EUK134 without peptide X, 8 hours of treatment) was 50%. In addition, the “level of intracellular ROS induced by H2O2” value in the series on HaCaT cells [1] (EUK134 0.12, 0.23 or 2.35 μM without peptide X, with the increase of concentration, 8 hours) is “slightly decreased”.
